Like-named read-outs stand apart in the source and are kept apart here.
How the values were obtained:
[1] = system: unresectable metastatic GIST; details: for total tumour size (tumour area of 8 large measurable liver metastases, MRI): 112.5 cm^2 before treatment
Experimental: Seven cycles of IADIC (ifosfamide, doxoribicin, and dacarbazine) were given from November 1998 to March 1999 for multiple liver metastases. […] They were subsequently treated between April 1999 and February 2000 with an experimental regimen consisting of thalidomide 400 mg once daily and interferon alpha 0.9 MU T.I.D. s.c. to control persisting liver disease.
(§1) Treatment toxicity was assessed at follow-up visits performed at 2 to 4 week intervals, and blood cell counts and blood chemistry were analysed at 1 to 2 week intervals. Treatment response was assessed with dynamic MRI scans, ^18F-fluorodeoxyglucose (FDG) positron emission tomography (PET) examinations, and cutting needle biopsies from a liver metastasis. Dynamic MRI was performed with a 1.5T Magnetom Vision (Siemens, Erlangen, Germany). Fat-suppressed T1-weighted breathhold gradient echo transaxial images were obtained both before and after intravenous contrast medium injection (0.1 mmol/kg gadolinium-DOTA; Dotarem, Guerbet, France). The enhancement pattern was established using sequential imaging over 5 minutes, and delayed scanning was performed after 10 minutes. FDG PET was done using an 8-ring ECAT 931/08 device (Siemens-CTI Corp. Knoxville, Tenn.). The FDG dose given varied between 355 to 375 MBq.

[2] = during therapy
Experimental: as §1, with “minutes.” for “minutes. FDG PET was done using an 8-ring ECAT 931/08 device (Siemens-CTI Corp. Knoxville, Tenn.). The FDG dose given varied between 355 to 375 MBq.”

GIST = system: GIST
Excerpt: At the priority date of the present patent application a clinical study with more GIST patients was being conducted analogously to the study described in Example 1.

[3] = system: unresectable and/or metastatic malignant gastrointestinal stromal tumors (GIST)
Experimental: A phase 2, open-label, randomized multinational study was conducted in patients with unresectable and/or metastatic malignant gastrointestinal stromal tumors (GIST). […] The primary evidence of efficacy was based on objective response rates, and the time to response, duration of response, time to treatment failure and survival were also evaluated. Tumors were required to be measurable in at least one site of disease, and response characterization based on Southwestern Oncology Group (SWOG) criteria.

[4] = among the 61 patients with stable disease

With CS(=O)(=O)O.Cc1ccc(NC(=O)c2ccc(CN3CCN(C)CC3)cc2)cc1Nc1nccc(-c2cccnc2)n1 [SALT I] as the compound, how does the “metabolic response in tumour (PET imaging)” value ([1]; 400 mg daily orally, within 1 month) read?
Its value is “complete metabolic response”.

What about the “decrease of total tumour size (MRI)” value ([1]; 1 month) of the same compound?
The value was 52%.

And the “total tumour size (tumour area of 8 large measurable liver metastases, MRI)” value ([1]; 1 month)?
The value was 54.3 cm^2.

And the “decrease of total tumour size (MRI)” value ([1]; 2 months)?
Its value is 63%.

And the “total tumour size (tumour area of 8 large measurable liver metastases, MRI)” value ([1]; 2 months)?
Its value is 41.5 cm^2.

And the “decrease of total tumour size (MRI)” value ([1]; 2 weeks after starting)?
Its value is 41%.

And the “total tumour size (tumour area of 8 large measurable liver metastases, MRI)” value ([1]; 2 weeks after starting)?
The value was 66.9 cm^2.

And the “decrease of total tumour size (MRI)” value ([1]; 4 months)?
The value was 68%.

What about the “total tumour size (tumour area of 8 large measurable liver metastases, MRI)” value ([1]; 4 months) of the same compound?
The value was 36.2 cm^2.

What about the “decrease of total tumour size (MRI)” value ([1]; 5.5 months) of the same compound?
Its value is 71%.

And the “total tumour size (tumour area of 8 large measurable liver metastases, MRI)” value ([1]; 5.5 months)?
The value was 32.5 cm^2.

What about the “FDG uptake in PET” value ([1]; PET 1 month after starting) of the same compound?
The value was “no abnormal FDG uptake was present in the liver”.

And the “FDG uptake in PET at the sites of liver metastases” value ([1]; PET 2 months after starting)?
Its value is “less FGD uptake than the surrounding liver parenchyma”.

And the “World Health Organization (WHO) performance status” value ([1]; during therapy, improved from 1 before)?
The value was 0.

And the new lesions ([1]; follow-up MRI on treatment)?
The new lesions was “No new lesions appeared”.

And the “liver metastases that disappeared” value ([1]; of the 28 liver metastases, follow-up MRI on treatment)?
Its value is 6.

And the “pattern of contrast enhancement of tumour by dynamic MRI” value ([1]; within 2 weeks after starting)?
Its value is “decreased dramatically”.

And the “drug-related liver, renal or cardiac toxicity” value [2]?
The value was “No drug-related liver, renal or cardiac toxicity was observed”.

And the “reduction in patients with partial response” value (GIST; 8 patients)?
The value was 50-66%.

And the “reduction in patients with stable disease” value (GIST; 18 patients)?
The value was 4-42%.

What about the “patients with partial response” value (GIST; of 27 evaluated patients) of the same compound?
The value was 8 patients.

What about the “patients with stable disease” value (GIST; of 27 evaluated patients) of the same compound?
Its value is 18 patients.

And the “patients with progression of the disease” value (GIST; of 27 evaluated patients, study not finished)?
The value was 1 patient.

What about the “Best response: Complete response” value ([3]; 400 mg (N = 73)) of the same compound?
Its value is 0 n (%).

What about the “Best response: Not evaluable” value ([3]; 400 mg (N = 73)) of the same compound?
Its value is 3 (4.1) n (%).

What about the “Best response: Partial response” value ([3]; 400 mg (N = 73)) of the same compound?
The value was 27 (37.0) n (%).

And the “Best response: Progressive disease” value ([3]; 400 mg (N = 73))?
The value was 10 (13.7) n (%).

What about the “Best response: Stable disease” value ([3]; 400 mg (N = 73)) of the same compound?
The value was 33 (45.2) n (%).

And the “Best response: Unknown” value ([3]; 400 mg (N = 73))?
The value was 0 n (%).

What about the “differences between dose groups in efficacy parameters” value ([3]; 400 mg vs 600 mg) of the same compound?
Its value is “could not be observed”.

What about the “Best response: Complete response” value ([3]; 600 mg (N = 74)) of the same compound?
Its value is 0 n (%).

And the “Best response: Not evaluable” value ([3]; 600 mg (N = 74))?
Its value is 4 (5.4) n (%).

What about the “Best response: Partial response” value ([3]; 600 mg (N = 74)) of the same compound?
Its value is 32 (43.2) n (%).

And the “Best response: Progressive disease” value ([3]; 600 mg (N = 74))?
Its value is 8 (10.8) n (%).

And the “Best response: Stable disease” value ([3]; 600 mg (N = 74))?
Its value is 28 (37.8) n (%).

And the “Best response: Unknown” value ([3]; 600 mg (N = 74))?
The value was 2 (2.7) n (%).

And the “Best response: Complete response” value ([3]; All doses (N = 147))?
Its value is 0 n (%).

What about the “Best response: Not evaluable” value ([3]; All doses (N = 147)) of the same compound?
The value was 7 (4.8) n (%).

What about the “Best response: Partial response” value ([3]; All doses (N = 147)) of the same compound?
Its value is 59 (40.1) n (%).

And the “Best response: Stable disease” value ([3]; All doses (N = 147))?
The value was 61 (41.5) n (%).

What about the “Best response: Unknown” value ([3]; All doses (N = 147)) of the same compound?
The value was 2 (1.4) n (%).

And the “patients with reduction in tumor size by more than 25% on at least one assessment” value ([3]; all 147 patients)?
Its value is 118 patients.

What about the “share of patients with reduction in tumor size by more than 25% on at least one assessment” value ([3]; all 147 patients) of the same compound?
The value was 80%.

What about the “patients with partial response not yet confirmed by a second assessment” value [3, 4] of the same compound?
Its value is 28 patients.

And the “patients with reduction in tumor size by more than 25%” value [3, 4]?
Its value is 19 patients.

What about the “patients with significant tumor shrinkage among stable disease” value [3, 4] of the same compound?
Its value is 47 patients.

And the “estimate of patients free from treatment failure” value (from here on “estimate of patients free”) ([3]; at 12 weeks, interval censoring)?
Its value is 80%.

What about the “estimate of patients free” value ([3]; at 12 weeks, without interval-censoring) of the same compound?
Its value is 81%.

And the “estimate of patients free” value ([3]; at 24 weeks, interval censoring)?
The value was 66%.

What about the “estimate of patients free” value ([3]; at 24 weeks, without interval-censoring) of the same compound?
The value was 67%.

What about the “median time to the onset of response” value ([3]; entire study population) of the same compound?
The value was 12 weeks.

What about the “relapse among patients with confirmed response” value ([3]; interim analysis) of the same compound?
Its value is “No patients with confirmed response had relapsed”.

What about the “median duration of response” value ([3]; interim analysis, no interval censoring) of the same compound?
The value was “approximately 14 weeks”.

And the “median time to treatment failure” value ([3]; interval censoring, pooled population, based on only two patients, not reliable)?
Its value is 54 weeks.

From US6958335B2, “Treatment of gastrointestinal stromal tumors” (Novartis AG, priority 2000, dated 2005)
